Like-named read-outs stand apart in the source and are kept apart here.
Key:
MCL-1 = MCL-1 (Homo sapiens (Human), UniProt Q07820); assay: Cell free Mcl-1:Bim affinity assay (fluorescence polarization competition); format: binding; settings: 15 nM MCL-1, 5 nM FITC-Bim, 1 hour at room temperature, read-out: BIM_Ki
How it was run: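 Compounds competed with FITC-labelled Bim peptide (5 nM) for MCL-1 (15 nM) in HEPES/NaCl buffer with 1% DMSO, 1 h at room temperature. Fluorescence polarization (535 nm emission) gave % inhibition versus DMSO and positive controls; IC50 from 10-point curves, converted to Ki by the Nikolovska-Coleska equation.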

H929 cells = assay: Cell viability assay (H929 10 FBS); format: cell-based; settings: read-out: H929_10FBS IC50
How it was run: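 H929 cells, 4000/well, in RPMI 1640 with 10% FBS, sodium pyruvate, HEPES and glucose were exposed to compound 24 h at 37 °C. Viability read as luminescence after 30-60 min at RT with CellTiter-Glo or ATPlite 1 Step.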

[1] = Homo sapiens, NCI-H929, 24 hours

Sequence of MCL-1 (Q07820 whole entry): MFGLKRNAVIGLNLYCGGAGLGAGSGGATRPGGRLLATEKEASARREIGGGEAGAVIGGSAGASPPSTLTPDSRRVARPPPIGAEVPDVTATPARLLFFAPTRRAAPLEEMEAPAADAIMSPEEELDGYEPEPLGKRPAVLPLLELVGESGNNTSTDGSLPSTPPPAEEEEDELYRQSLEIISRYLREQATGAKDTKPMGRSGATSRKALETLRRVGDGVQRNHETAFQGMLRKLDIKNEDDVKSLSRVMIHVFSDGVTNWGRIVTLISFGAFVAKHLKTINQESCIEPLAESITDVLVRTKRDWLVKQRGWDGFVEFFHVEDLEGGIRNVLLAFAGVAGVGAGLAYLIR

SMILES | Ki (MCL-1; class symbols) [nM] | IC50 (H929 cells; [1]) [nM] | IC50 (H929 cells; 24 hours) [nM] | Ki (MCL-1; numeric values) [nM]
COC1CN(C(=O)O[C@H]2/C=C/CN(C)C(C)(C)C(=O)NS(=O)(=O)c3ccc4c(c3)N(C[C@@H]3CC[C@H]32)C[C@@]2(CCCc3cc(Cl)ccc32)CO4)C1 [Example 217, [(3R,6R,7S,8E,22S)-6′-Chloro-11,12,12-trimethyl-13,15,15-trioxo-spiro[20-oxa-15-thia-1,11,14-triazatetracyclo[14.7.2.03,6.019,24]pentacosa-8,16,18,24-tetraene-22,1′-tetralin]-7-yl] 3-methoxyazetidine-1-carboxylate] | < 1 | < 500 |  | 
CN(C(=O)O[C@H]1/C=C/CN(C)C(C)(C)C(=O)NS(=O)(=O)c2ccc3c(c2)N(C[C@@H]2CC[C@H]21)C[C@@]1(CCCc2cc(Cl)ccc21)CO3)[C@H]1CCOC1 [Example 226, [(3R,6R,7S,8E,22S)-6′-Chloro-11,12,12-trimethyl-13,15,15-trioxo-spiro[20-oxa-15-thia-1,11,14-triazatetracyclo[14.7.2.03,6.019,24]pentacosa-8,16,18,24-tetraene-22,1′-tetralin]-7-yl] N-methyl-N-[(3S)-tetrahydrofuran-3-yl]carbamate] | < 1 | < 500 |  | 
CN(C)C(=O)O[C@H]1/C=C/COC(C)(C)C(=O)NS(=O)(=O)c2ccc3c(c2)N(C[C@@H]2CC[C@H]21)C[C@]1(CO3)OCCc2cc(Cl)ccc21 [Example 250, [(3R,6R,7S,8E,22R)-6′-Chloro-12,12-dimethyl-13,15,15-trioxo-spiro[11,20-dioxa-15-thia-1,14-diazatetracyclo[14.7.2.03,6.019,24]pentacosa-8,16,18,24-tetraene-22,1′-isochromane]-7-yl] N,N-dimethylcarbamate] | < 1 | < 500 |  | 
CCN1C/C=C/[C@H](OC(=O)N2CC(N(C)C)C2)[C@@H]2CC[C@H]2CN2C[C@@]3(CCCc4cc(Cl)ccc43)COc3ccc(cc32)S(=O)(=O)NC(=O)C1(C)C [Example 224, [(3R,6R,7S,8E,22S)-6′-Chloro-11-ethyl-12,12-dimethyl-13,15,15-trioxo-spiro[20-oxa-15-thia-1,11,14-triazatetracyclo[14.7.2.03,6.019,24]pentacosa-8,16,18,24-tetraene-22,1′-tetralin]-7-yl] 3-(dimethylamino)azetidine-1-carboxylate] | < 1 | < 500 |  | 
CO[C@@H]1/C=C/CCC2(CC2)C(=O)NS(=O)(=O)c2ccc3c(c2)N(C[C@@H]2CC[C@H]21)C[C@@]1(CCCc2cc(Cl)ccc21)CO3 [Example 69, (3R,6R,7R,8E,22S)-6′-Chloro-7-methoxy-12,12-ethylene-15,15-dioxo-spiro[[20]oxa[15]thia-1,14-diazatetracyclo[14.7.2.03,6.019,24]pentacosa[8,16(25),17,19(24)]tetraene-22,1′-tetralin]-13-one] | 1 to 100 |  | > 1000 | 
CC(=O)NS(=O)(=O)c1ccc2c(c1)N(CC1C[C@@H](C)O[C@@H](C)C1)CC1(CCCc3cc(Cl)ccc31)CO2 (mixture of isomers) [Example 8, N-[6′-Chloro-5-[[rac-(2S,6R)-2,6-dimethyltetrahydropyran-4-yl]methyl]spiro[2,4-dihydro-1,5-benzoxazepine-3,1′-tetralin]-7-yl]sulfonylacetamide] |  | > 1000 |  | 424
O=C1Cn2ccc(n2)CC(=O)N2CCC(C2)CN2C[C@@]3(CCCc4cc(Cl)ccc43)COc3ccc(cc32)S(=O)(=O)N1 (stereo partly drawn) [Example 296, (23S)-6′-Chloro-16,16-dioxo-spiro[21-oxa-16-thia-1,6,12,15,27-pentazapentacyclo[15.7.2.13,6.19,12.020,25]octacosa-9(27),10,17,19,25-pentaene-23,1′-tetralin]-7,14-dione] | 1 to 100 | < 500 |  | 
CN(C)C1CN(C(=O)O[C@H]2/C=C/CN(C)C(C)(C)C(=O)NS(=O)(=O)c3ccc4c(c3)N(C[C@@H]3CC[C@H]32)C[C@@]2(CCCc3cc(Cl)ccc32)CO4)C1 [Example 214, [(3R,6R,7S,8E,22S)-6′-Chloro-11,12,12-trimethyl-13,15,15-trioxo-spiro[20-oxa-15-thia-1,11,14-triazatetracyclo[14.7.2.03,6.019,24]pentacosa-8,16,18,24-tetraene-22,1′-tetralin]-7-yl] 3-(dimethylamino)azetidine-1-carboxylate] | < 1 | < 500 |  | 
CC1(C)OC/C=C/[C@H](OC(=O)NC2CCC2)[C@@H]2CC[C@H]2CN2C[C@@]3(CCCc4cc(Cl)ccc43)COc3ccc(cc32)S(=O)(=O)NC1=O [Example 184, [(3R,6R,7S,8E,22S)-6′-Chloro-12,12-dimethyl-13,15,15-trioxo-spiro[11,20-dioxa-15-thia-1,14-diazatetracyclo[14.7.2.03,6.019,24]pentacosa-8,16,18,24-tetraene-22,1′-tetralin]-7-yl] N-cyclobutylcarbamate] | < 1 | < 500 |  | 
C[C@H]1C(=O)NS(=O)(=O)c2ccc3c(c2)N(C[C@@H]2CC[C@H]2[C@@H](OC(=O)N(C)C)/C=C/CN1C)C[C@@]1(CCCc2cc(Cl)ccc21)CO3 [Example 147, [(3R,6R,7S,8E,12S,22S)-6′-Chloro-11,12-dimethyl-13,15,15-trioxo-spiro[20-oxa-15-thia-1,11,14-triazatetracyclo[14.7.2.03,6.019,24]pentacosa-8,16,18,24-tetraene-22,1′-tetralin]-7-yl] N,N-dimethylcarbamate] | < 1 | < 500 |  | 
CO[C@H]1/C=C/C[C@H](C)[C@@H](C)C(=O)NS(=O)(=O)c2ccc3c(c2)N(C[C@@H]2CC[C@H]21)C[C@@]1(CCCc2cc(Cl)ccc21)CO3 [Example 79, (3R,6R,7S,8E,11S,12R,22S)-6′-Chloro-7-methoxy-11,12-dimethyl-15,15-dioxo-spiro[20-oxa-15-thia-1,14-diazatetracyclo[14.7.2.03,6.019,24]pentacosa-8,16,18,24-tetraene-22,1′-tetralin]-13-one] | 1 to 100 | > 1000 |  | 
CN(C)C(=O)N(C)[C@H]1/C=C/COC(C)(C)C(=O)NS(=O)(=O)c2ccc3c(c2)N(C[C@@H]2CC[C@H]21)C[C@@]1(CCCc2cc(Cl)ccc21)CO3 [Example 257, 1,1,3-Trimethyl-3-[(3R,6R,7S,8E,22S)-6′-chloro-12,12-dimethyl-13,15,15-trioxo-spiro[11,20-dioxa-15-thia-1,14-diazatetracyclo[14.7.2.03,6.019,24]pentacosa-8,16(25),17,19(24)-tetraene-22,1′-tetralin]-7-yl]urea] | 1 to 100 | > 1000 |  | 
CCO[C@H]1CCN(C(=O)O[C@H]2/C=C/COC(C)(C)C(=O)NS(=O)(=O)c3ccc4c(c3)N(C[C@@H]3CC[C@H]32)C[C@@]2(CCCc3cc(Cl)ccc32)CO4)C1 [Example 162, [(3R,6R,7S,8E,22S)-6′-Chloro-12,12-dimethyl-13,15,15-trioxo-spiro[11,20-dioxa-15-thia-1,14-diazatetracyclo[14.7.2.03,6.019,24]pentacosa-8,16,18,24-tetraene-22,1′-tetralin]-7-yl] (3S)-3-ethoxypyrrolidine-1-carboxylate] | < 1 | < 500 |  | 
CC1(C)OC/C=C/[C@H](OCCN2CC(F)(F)C2)[C@@H]2CC[C@H]2CN2C[C@@]3(CCCc4cc(Cl)ccc43)COc3ccc(cc32)S(=O)(=O)NC1=O [Example 258, (3R,6R,7S,8E,22S)-6′-Chloro-7-[2-(3,3-difluoroazetidin-1-yl)ethoxy]-12,12-dimethyl-15,15-dioxo-spiro[11,20-dioxa-15-thia-1,14-diazatetracyclo[14.7.2.03,6.019,24]pentacosa-8,16,18,24-tetraene-22,1′-tetralin]-13-one] | < 1 | < 500 |  | 
CN(C(=O)O[C@H]1/C=C/COC2(CCC2)C(=O)NS(=O)(=O)c2ccc3c(c2)N(C[C@@H]2CC[C@H]21)C[C@@]1(CCCc2cc(Cl)ccc21)CO3)[C@@H]1CCOC1 [Example 234, [(3R,6R,7S,8E,22S)-6′-Chloro-12,12-(1,3-propylene)-13,15,15-trioxo-spiro[11,20-dioxa-15-thia-1,14-diazatetracyclo[14.7.2.03,6.019,24]pentacosa-8,16,18,24-tetraene-22,1′-tetralin]-7-yl] N-methyl-N-[(3R)-tetrahydrofuran-3-yl]carbamate] | < 1 | < 500 |  | 
Cc1cc(CC(=O)NS(=O)(=O)c2ccc3c(c2)N(CC2CCC2)C[C@@]2(CCCc4cc(Cl)ccc42)CO3)nn1C [Example 15, 2-(1,5-Dimethylpyrazol-3-yl)-N-[(3S)-6′-chloro-5-(cyclobutylmethyl)spiro[2,4-dihydro-1,5-benzoxazepine-3,1′-tetralin]-7-yl]sulfonyl-acetamide] |  | > 1000 |  | 8.7
CO[C@H]1/C=C/CNC(C)(C)C(=O)NS(=O)(=O)c2ccc3c(c2)N(C[C@@H]2CC[C@H]21)C[C@@]1(CCCc2cc(Cl)ccc21)CO3 [Example 136, (3R,6R,7S,8E,22S)-6′-Chloro-7-methoxy-12,12-dimethyl-15,15-dioxo-spiro[20-oxa-15-thia-1,11,14-triazatetracyclo[14.7.2.03,6.019,24]pentacosa-8,16,18,24-tetraene-22,1′-tetralin]-13-one] | 1 to 100 | > 1000 |  | 
CN1C/C=C/[C@H](OC(=O)N[C@H]2CCOC2)[C@@H]2CC[C@H]2CN2C[C@@]3(CCCc4cc(Cl)ccc43)COc3ccc(cc32)S(=O)(=O)NC(=O)C12CCC2 [Example 295, [(3R,6R,7S,8E,22S)-6′-Chloro-11-methyl-12,12-(1,3-propylene)-13,15,15-trioxo-spiro[20-oxa-15-thia-1,11,14-triazatetracyclo[14.7.2.03,6.019,24]pentacosa-8,16,18,24-tetraene-22,1′-tetralin]-7-yl] N-[(3S)-tetrahydrofuran-3-yl]carbamate] | 1 to 100 | > 1000 |  | 

Reference: patent US11130769B2 (Prelude Therapeutics Incorporated, priority 2018, dated 2021)
